According to a melting point compilation (Tetko et al.; mined from patent text by program, amines drawn as free bases though some values may be those of a salt):

Structure (SMILES)	melting point [°C]
CCC(C)NS(=O)(=O)c1ccc(N)c(C(=O)N2CCN(C)CC2)c1 (stereo not drawn)	130 to 132
CCCCOC(=O)C(C#N)C(=O)c1ccc(Cl)cc1[N+](=O)[O-] (stereo not drawn)	56 to 58
CC(=O)OC1CCC2(C)C(CCC3=C4C(=O)CC(C(C)CCC=C(C)C)C4(C)CCC32)C1 (stereo not drawn)	129 to 130
Cc1nc(-n2ccc(OCc3ccc(OC(F)F)cc3)cc2=O)sc1C(=O)NCc1ccc(F)cc1	242 to 244
Cc1cc(Cc2cnc(NCCSCc3cc(CN(C)C)ccn3)[nH]c2=O)cnc1C	72 to 78
CCOC(=O)C(C)Oc1ccc(Oc2cnc3ccc(Cl)cc3c2)cc1 (stereo not drawn)	98
CC(Oc1ccccc1Cl)C(=O)OC1CC(O)C=C2C=CC(C)C(CCC3CC(O)CC(=O)O3)C21 (mixture of isomers)	152 to 155
CC(=O)/C=C(\C)c1ccc(-c2ccccc2)c(F)c1	103
Oc1ccc2ccccc2c1N=Nc1ccc2[nH]nnc2c1	250
[N-]=[N+]=NCCc1ccc(C(=O)O)cc1	130 to 131
Cc1c(C(F)(F)F)n(C)c(=O)n(-c2cc(N)c(C#C[Si](C)(C)C)cc2F)c1=O	192 to 198
CC1(C)Oc2ccc(C#N)cc2[C@@H](n2cnccc2=O)[C@@H]1O (relative stereo)	202 to 203
CCOC(=O)c1cc2ccccc2n1C	62 to 64
CC(c1oc2ccccc2c(=O)c1-c1cccc(F)c1)n1nc(-c2cccc3c2oc2ccccc23)c2c(N)ncnc21 (stereo not drawn)	238 to 240
CCC(C)P(=S)(NP(=S)(C(C)CC)C(C)CC)C(C)CC (stereo not drawn)	110 to 114
O=C(Nc1cccc(C(F)(F)F)c1)Nc1ccc(Oc2ncnc3ccn(CCOCCO)c23)cc1Cl	170 to 174
Oc1cc(O)c2c(c1)Oc1cc(Br)ccc1CC2	178 to 180
COc1ccc2c(c1)CCC(NC(C)=O)(C(=O)O)C2 (stereo not drawn)	252 to 254
CC(=O)Nc1ncc(-c2ccncc2)cn1	261 to 264
Cc1cc(O)c(C)c2sc(N)nc12	199 to 201
COC(=O)c1cccc2c1CC(c1csc(-c3ccncc3)n1)C(=O)N2 (stereo not drawn)	230 to 231
Oc1ccc(-c2cc3cc(Cl)cc(Cl)c3o2)cc1	184 to 186
Cn1c(=S)n(C)c(=O)n(-c2ccc(F)cc2F)c1=O	156 to 159
COc1ccc2c(N)c(C(=O)Nc3ccc(Cl)cc3Cl)oc2c1	187 to 188

Structure (SMILES)	melting point [°C]
OCc1nn(C(c2ccccc2)(c2ccccc2)c2ccccc2)c2ccccc12	192 to 193
CCCCCN(CCCCC)C(=O)C(CCC(=O)O)CS(=O)(=O)c1ccc(Cl)c(Cl)c1 (stereo not drawn)	76 to 79
Nc1nc(N)c(-c2ccc(Cl)cc2Cl)c(C(F)(F)F)n1	220 to 221
COc1cccc(COc2ccc3oc(-c4nc(C(C)(C)C)cs4)cc3c2)c1OC(C)C(N)=O (stereo not drawn)	155 to 156
CCNC(=O)c1ccc(CCN2CC=C(c3c[nH]c(-c4ccc(F)cc4)c3-c3ccncc3)CC2)cc1	228 to 230
Cc1c(N2CCOCC2)c(F)cc2c(=O)c(C(=O)O)cn(C3CC3)c12	228
C1=CNc2ccccc2C=N1	165 to 167
Cc1ccc(S(=O)(=O)OCC2Cc3ccccc3C2)cc1	95 to 97
Oc1c(CCc2ccccc2)cnc2c(-c3cc(-c4ccccc4)cs3)cnn12	278 to 285
CN1CCN(C2=Nc3ccccc3N(C)c3sc4ccccc4c32)CC1	88 to 90
FC(F)(F)Sc1ccc(C=Cc2nc(CNc3ccc(CCCCn4ccnn4)cc3)co2)cc1	76 to 78
O=C(O)CC(CC(=O)O)Sc1nc2ccccc2s1	153 to 154
Fc1ccc(N2CCN(CCCc3[nH]nc4c3CSCC4)CC2)cc1	110 to 111
O=S(CCCCCl)Cc1ccc(Cl)cc1 (stereo not drawn)	56 to 58
CC(C)[C@H](OCc1ccccc1F)[C@H]1[C@H]([N+](=O)[O-])[C@H](c2ccccc2)N[C@@H]1C(=O)NCC(=O)O	72 to 73
OCc1cccc(Nc2nc(Oc3ccccc3)nc(Oc3ccccc3Cl)n2)c1	52 to 54
COc1ccc(-c2ocnc2-c2cc(OC)c(O)c(OC)c2)cc1F	161 to 163
CN(C)CC1CC(c2ccc(S(C)(=O)=O)cc2)=C(c2cc(F)cc(F)c2)C1=O (stereo not drawn)	104 to 106
COC(=O)c1cc(S(=O)(=O)c2ccc(C)cc2)cc2c1OC(c1ccc(OC)cc1)(c1ccc(OC)cc1)O2	79 to 82
CC(C)(C)c1cc(CN(c2cccnc2)S(=O)(=O)c2ccc([N+](=O)[O-])cc2)cc(C(C)(C)C)c1O	159 to 160
Cc1ccc(-c2ccc(S(C)(=O)=O)cc2)n1-c1ccc(F)cc1	110 to 112
CCCc1c(OCCCOc2ccc(NC(=O)c3nnn[nH]3)cc2)ccc(C(C)=O)c1O	200 to 202
CCc1ccc(-c2ccc3c(c2)C=C(C(=O)Nc2ccc(CN(C)C4CCOCC4)cc2)CCN3C)cc1	164 to 165
C[C@@H]1CCC[C@H](C)N1Cc1ccc2cc(NC(=O)N3CCC(c4ccc(Cl)cc4)CC3)ccc2c1	199 to 200
